Reference: article PMC10099595, “Multimodal 4-arylchromene derivatives with microtubule-destabilizing, anti-angiogenic, and MYB-inhibitory activities” (Cancer Drug Resistance, 2023)
Like-named read-outs stand apart in the source and are kept apart here.

What was measured:
[1] = system: EA.hy926 endothelial hybrid cells; experiment: MTT antiproliferative assay, EA.hy926; assay type: cell-based; details: Homo sapiens, EA.hy 926, 72 h
Excerpt: (§1) The following cell lines were used: 518A2 melanoma (Department of Radiotherapy, Medical University of Vienna, Austria)[15], HeLa cervix carcinoma, KBV1^Vbl (ACC-149 cervix carcinoma, MCF7 [ACC-115]) breast carcinoma, U-87 glioblastoma, HT-29 (ACC-299), HCT-116 (ACC-581) and HCT-116p53-/- colon carcinoma, EA.hy926 (ATCC® CRL-2922^TM) endothelial hybrid cells, and HDFa (ATCC® PCS-201-012^TM) adult human dermal fibroblasts. […] Only mycoplasma-free cultures were used.

518A2 melanoma cells [2] = experiment: MTT antiproliferative assay, 518A2; assay type: cell-based; details: Homo sapiens, 72 h
Excerpt: as §1

[3] = system: HCT-116 colon carcinoma cells; experiment: MTT antiproliferative assay, HCT-116; assay type: cell-based; details: Homo sapiens, 72 h
Excerpt: as §1

[4] = system: HCT-116 p53-/- colon carcinoma cells; experiment: MTT antiproliferative assay, HCT-116 p53-/-; assay type: cell-based; details: Homo sapiens, 72 h
Excerpt: as §1

U-87 glioblastoma cells = experiment: MTT antiproliferative assay, U87; assay type: cell-based; details: Homo sapiens, 72 h
Excerpt: as §1

[5] = system: HT-29 colon carcinoma cells; experiment: MTT antiproliferative assay, HT-29; assay type: cell-based; details: Homo sapiens, 72 h
Excerpt: as §1

[6] = system: KB-V1^Vbl cervix carcinoma cells; experiment: MTT antiproliferative assay, KB-V1Vbl (with or without verapamil); assay type: cell-based, human; details: for IC50: Homo sapiens, KB-V1/Vbl, MTT, 72 h, without verapamil, read-out: IC50 KB-V1^Vbl; for fold lower IC50 values combined with verapamil: KB-V1^Vbl cells, verapamil 1 µM vs none
Excerpt: as §1

[7] = system: HeLa cervix carcinoma cells; experiment: MTT antiproliferative assay, HeLa; assay type: cell-based; details: Homo sapiens, 72 h
Excerpt: as §1

[8] = system: MCF-7 breast carcinoma cells; experiment: MTT antiproliferative assay, MCF-7; assay type: cell-based; details: Homo sapiens, MCF7, 72 h
Excerpt: as §1

[9] = system: HDFa adult human dermal fibroblasts; experiment: MTT cytotoxicity assay, non-malignant HDFa; assay type: cell-based; details: 72 h, non-malignant cells
Excerpt: as §1

zebrafish larvae = experiment: Zebrafish angiogenesis assay (SIV area); assay type: in vivo; details: zebrafish larvae 24 hpf, 48 h treatment, 50-1000 nM
Description: Transgenic zebrafish (Tg(fli1:EGFP, casper mutant) were bred at 28 °C.[16] After fertilization, the eggs were transferred to E3-medium (5 mm NaCl, 0.17 mm KCl, 0.33 mm CaCl, 0.33 mm MgSO4, 0.01% methylene blue, pH 7.2), followed by incubation for 24 h. The chorion was manually removed, and the larvae were treated with test compounds or solvent in six-well plates (30 fish per concentration, 5 mL/well) for 48 h. The fluorescent vasculature was documented with a Leica MZ10F and Zeiss AxioCam MRrc. To quantify the angiogenesis, the sub-intestinal vein (SIV) area was measured using ImageJ and expressed as means ± SD with the control set to 100%. The significance of SIV reduction through substance treatment was assessed using one-way analysis of variance (ANOVA), *P < 0.05; **P < 0.01; ***P < 0.001; ****P < 0.0001, with Dunnett´s multiple comparison test (GraphPad Prism 9).

MYB = target: T1, MYB (Homo sapiens, UniProt P10242, K503R/K527R); experiment: Luciferase-dependent MYB activity assay (HEK-MYB-Luc reporter cells); assay type: cell-based; details: HEK-293 reporter cells, 16 h; read-out: IC50 inhibition of MYB activity
T1 construct: expressed in transfected cells; host or cells: HEK-293 (HEK-MYB-Luc reporter cell line)
Description: Compounds were tested using the HEK-MYB-Luc reporter cell line, which allows a doxycycline-dependent induction of MYB expression and harbors an MYB-dependent luciferase reporter plasmid, as previously described. After 16 h of substance treatment (0.0001-3 µM), luciferase activities were analyzed as described.

[10] = system: tested cancer and hybrid cell lines; experiment: MTT assay, average over all tested cancer and hybrid cell lines
518A2 melanoma cells [11] = experiment: Cell-cycle analysis (FACS, propidium iodide); assay type: cell-based, human; details: 518A2 cells, 25 nM, 24 h
Description: 518A2 melanoma cells (10 × 10^4 cells/mL, 3 mL/well) were cultivated in six-well plates for 24 h. After the treatment with test compounds (10 and 25 nm), C-A4 (10 and 25 nm), or DMSO (vehicle) for an additional 24 h, the cells were trypsinized, centrifuged (300 × g, 5 min, 4 °C), and fixed in 70% EtOH for min. 24 h. For FACS measurement, cells were washed in PBS and stained with propidium iodide solution (50 µg/mL PI, 50 µg/mL RNase A in 0.1% sodium citrate) for 30 min at 37 °C. The DNA content of at least 10000 single cells was determined using a Beckmann Coulter Cytomics FC500 flow cytometer (λex = 488 nm, λem = 570 nm). CXP software (Beckman Coulter) was used to analyze the cells in the cell cycle phases (sub-G1, G1, S, G2/M).

[12] = Homo sapiens, read-out: Average IC50 value of the tested cancer and hybrid cell lines (Ø IC50), average of all cell lines of Table 2

T1 sequence (P10242 whole entry K503R/K527R): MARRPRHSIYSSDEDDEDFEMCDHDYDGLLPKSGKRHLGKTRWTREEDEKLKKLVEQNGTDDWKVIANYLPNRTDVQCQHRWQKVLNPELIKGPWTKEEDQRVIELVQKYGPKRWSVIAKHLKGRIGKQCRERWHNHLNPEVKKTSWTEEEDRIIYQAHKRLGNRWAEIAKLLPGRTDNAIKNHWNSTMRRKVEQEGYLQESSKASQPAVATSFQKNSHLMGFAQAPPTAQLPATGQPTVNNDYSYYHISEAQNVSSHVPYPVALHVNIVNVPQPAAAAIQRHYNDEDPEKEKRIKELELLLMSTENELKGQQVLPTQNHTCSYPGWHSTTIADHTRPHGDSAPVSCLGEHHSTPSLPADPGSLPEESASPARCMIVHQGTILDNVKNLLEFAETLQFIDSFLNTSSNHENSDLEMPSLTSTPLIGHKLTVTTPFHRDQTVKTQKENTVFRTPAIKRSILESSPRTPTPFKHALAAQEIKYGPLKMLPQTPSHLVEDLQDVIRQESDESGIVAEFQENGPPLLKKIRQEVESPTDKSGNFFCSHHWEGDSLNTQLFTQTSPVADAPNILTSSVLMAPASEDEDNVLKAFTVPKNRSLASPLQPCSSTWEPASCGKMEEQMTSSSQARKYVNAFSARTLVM

SMILES	IC50 (518A2 melanoma cells [2])	IC50 [3]	IC50 [4]	IC50 (U-87 glioblastoma cells)	IC50 [5]	IC50 [6]	fold lower IC50 values combined with verapamil [6]	IC50 [7]	IC50 [8]	IC50 (MYB)	IC50 [10, 12]	IC50 ([10]; read-out: Average IC50 value of the tested cancer and hybrid cell lines (Ø IC50), average of all cell lines of Table 2)	IC50 [1]	IC50 [9]	effect on SIV growth (angiogenesis) (zebrafish larvae)	G2/M cell-cycle arrest (in words) (518A2 melanoma cells [11])	P-gp substrate / dependence on P-gp ([6]; inferred from KB-V1^Vbl cells with and without verapamil)
COc1ccc2c(c1)OC(N)=C(C#N)C2c1cc(Br)c(OC)c(OC)c1 (stereo not drawn) [2B]	6 ± 0.2 nM	100 ± 10 nM	30 ± 3 nM	80 ± 5 nM	200 ± 20 nM	10 ± 1 nM	14 fold	2 ± 0.2 nM	100 ± 8 nM	1.28 ± 0.3 nM	49 nM	–	0.8 ± 0.09 nM	> 50000 nM	no SIV decrease	–	–
COc1ccc2c(c1)OC(N)=C(C#N)C2c1cc(I)c(OC)c(OC)c1 (stereo not drawn) [2C, 2-Amino-3-cyano-4-(3’-iodo-4’, 5’-dimethoxyphenyl)-7-methoxy-4H-chromene]	20 ± 2 nM	70 ± 1 nM	6 ± 0.7 nM	25 ± 2 nM	200 ± 20 nM	60 ± 5 nM	20 fold	10 ± 0.9 nM	20 ± 1 nM	1.56 ± 0.2 nM	47 nM	–	60 ± 5 nM	> 50000 nM	no SIV decrease	–	–
COc1ccc2c(c1)OC(N)=C(C#N)C2c1ccc(F)c(F)c1 (stereo not drawn) [2I, 2-Amino-3-cyano-4-(3’, 4’-difluorophenyl)-7-methoxy-4H-chromene]	700 ± 5 nM	800 ± 6 nM	600 ± 6 nM	3600 ± 500 nM	800 ± 30 nM	700 ± 30 nM	12 fold	600 ± 30 nM	700 ± 100 nM	–	–	–	700 ± 10 nM	–	–	–	–
COc1ccc2c(c1)OC(N)=C(C#N)C2c1ccc(Cl)c(Cl)c1 (stereo not drawn) [2K, 2-Amino-3-cyano-4-(3’, 4’-dichlorophenyl)-7-methoxy-4H-chromene]	600 ± 7 nM	300 ± 10 nM	800 ± 20 nM	8500 ± 300 nM	1900 ± 100 nM	1300 ± 100 nM	–	800 ± 70 nM	1000 ± 50 nM	–	> 500 nM	–	600 ± 80 nM	–	–	–	–

More lines, main results first:

IC50 (518A2 melanoma cells [2])	IC50 [3]	IC50 [4]	IC50 (U-87 glioblastoma cells)	IC50 [5]	IC50 [6]	fold lower IC50 values combined with verapamil [6]	IC50 [7]	IC50 [8]	IC50 (MYB)	IC50 [10, 12]	IC50 ([10]; read-out: Average IC50 value of the tested cancer and hybrid cell lines (Ø IC50), average of all cell lines of Table 2)	SMILES	IC50 [1]	IC50 [9]	effect on SIV growth (angiogenesis) (zebrafish larvae)	G2/M cell-cycle arrest (in words) (518A2 melanoma cells [11])	P-gp substrate / dependence on P-gp ([6]; inferred from KB-V1^Vbl cells with and without verapamil)
2100 ± 200 nM	2500 ± 200 nM	1900 ± 200 nM	3900 ± 400 nM	1400 ± 100 nM	2100 ± 100 nM	–	700 ± 50 nM	2400 ± 300 nM	–	> 500 nM	–	COc1ccc2c(c1)OC(N)=C(C#N)C2c1cc(Cl)c(OC)c(Cl)c1 (stereo not drawn) [2D, 2-Amino-3-cyano-4-(3’, 5’-dichloro-4’-methoxyphenyl)-7-methoxy-4H-chromene]	1100 ± 70 nM	–	–	only a slight increase in G2/M phase cells	–
700 ± 40 nM	200 ± 20 nM	300 ± 40 nM	3200 ± 100 nM	200 ± 10 nM	700 ± 20 nM	–	400 ± 60 nM	500 ± 40 nM	–	> 500 nM	–	COc1ccc2c(c1)OC(N)=C(C#N)C2c1ccccc1F (stereo not drawn) [2G, 2-Amino-3-cyano-4-(2’-fluorophenyl)-7-methoxy-4H-chromene]	900 ± 90 nM	–	–	–	–
400 ± 10 nM	300 ± 30 nM	400 ± 40 nM	1200 ± 70 nM	500 ± 50 nM	300 ± 20 nM	–	100 ± 6 nM	150 ± 20 nM	–	396 nM	> 500 nM	COc1ccc2c(c1)OC(N)=C(C#N)C2c1ccc(F)c(Cl)c1 (stereo not drawn) [2J, 2-Amino-3-cyano-4-(3’-chloro-4’-fluorophenyl)-7-methoxy-4H-chromene]	400 ± 20 nM	–	–	–	substrate of P-gp
